Measurements taken from patent US9625446B2, “Method and quantification assay for determining c-kit/SCF/pAKT status” (Ventana Medical Systems, Inc., priority 2001, dated 2017).

Target: c-kit receptor (Homo sapiens, UniProt P10721)
Conditions: MDA-MB-361 cells, SCF ligand present, three-day culture, STI-571 1 μM to 40 μM, 50 μg total protein lysate, FIG. 4

c-kit receptor, sequence (P10721 26-976): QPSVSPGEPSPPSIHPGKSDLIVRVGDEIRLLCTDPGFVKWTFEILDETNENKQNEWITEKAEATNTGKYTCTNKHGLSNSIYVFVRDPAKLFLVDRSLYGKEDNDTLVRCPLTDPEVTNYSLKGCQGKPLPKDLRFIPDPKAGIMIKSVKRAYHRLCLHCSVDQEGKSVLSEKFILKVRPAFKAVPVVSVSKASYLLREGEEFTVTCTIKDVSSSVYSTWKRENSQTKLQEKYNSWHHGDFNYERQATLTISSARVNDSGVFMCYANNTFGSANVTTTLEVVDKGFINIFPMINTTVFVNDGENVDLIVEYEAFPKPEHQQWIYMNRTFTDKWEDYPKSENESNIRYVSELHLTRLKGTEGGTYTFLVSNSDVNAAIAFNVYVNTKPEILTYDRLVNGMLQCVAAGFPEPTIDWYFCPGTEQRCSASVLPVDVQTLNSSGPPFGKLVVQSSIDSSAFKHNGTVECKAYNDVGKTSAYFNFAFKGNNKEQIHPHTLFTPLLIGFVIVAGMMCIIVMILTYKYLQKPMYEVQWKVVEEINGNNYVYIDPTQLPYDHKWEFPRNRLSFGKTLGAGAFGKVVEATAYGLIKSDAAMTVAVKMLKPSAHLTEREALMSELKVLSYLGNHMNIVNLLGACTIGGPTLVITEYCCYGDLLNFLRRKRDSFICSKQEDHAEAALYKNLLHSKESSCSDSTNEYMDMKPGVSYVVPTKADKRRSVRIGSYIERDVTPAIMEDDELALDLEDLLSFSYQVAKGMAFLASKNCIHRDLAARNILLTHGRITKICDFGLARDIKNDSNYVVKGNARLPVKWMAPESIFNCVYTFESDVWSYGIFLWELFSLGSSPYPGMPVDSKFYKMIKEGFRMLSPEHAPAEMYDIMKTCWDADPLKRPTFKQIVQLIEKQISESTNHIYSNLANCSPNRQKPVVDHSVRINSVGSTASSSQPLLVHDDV

## Cc1ccc(NC(=O)c2ccc(CN3CCN(C)CC3)cc2)cc1Nc1nccc(-c2cccnc2)n1 [STI-571]
  STI-571 concentration at which SCF-induced c-kit activation is inhibited (no 145 kDa activated c-kit band): ≤ 1 µM
